Measurements published in US12371454B2, “Cyclic peptide compound having Kras inhibitory action” (priority 2019, dated 2025).
pIC50: −log10 of the molar value. Starred links: 1 amine or outer side, 2 acyl side, 3 side chain; linkers in the order of their positions; H or OH if unused. Positions of bridges follow the written chain, without caps; N, C: chain ends. Non-standard residues stand in square brackets, D forms with d. Residues, ends and D or L forms follow the SMILES beside them. *: point of attachment. hPhe(3,5-F2-4-CF3) = N[C@@H](CCc1cc(F)c(C(F)(F)F)c(F)c1)C(=O)O; hPhe(3-Cl-4-CF3) = N[C@@H](CCc1ccc(C(F)(F)F)c(Cl)c1)C(=O)O; NMePhe(4-CF3) = CN[C@@H](Cc1ccc(C(F)(F)F)cc1)C(=O)O; hPhe(4-CF3) = N[C@@H](CCc1ccc(C(F)(F)F)cc1)C(=O)O; Piperazinyl(4-(3-oxetanyl)) = C1OCC1N1CCN(*)CC1; NMePhe(3-Br) = CN[C@@H](Cc1cccc(Br)c1)C(=O)O; NMePhe(4-Cl) = CN[C@@H](Cc1ccc(Cl)cc1)C(=O)O; NMePhe(4-Me) = CN[C@@H](Cc1ccc(C)cc1)C(=O)O; NMedβ3hAla = C[C@H](CC(=O)[*:2])N(C)[*:1]; NMeAla(cPent) = CN[C@@H](CC1CCCC1)C(=O)O; NMeGly(cPent) = CN[C@H](C(=O)O)C1CCCC1; Phe(3-I) = N[C@@H](Cc1cccc(I)c1)C(=O)O; Pro(4,4-F2) = O=C(O)[C@@H]1CC(F)(F)CN1; NMeAla(cPr) = CN[C@@H](CC1CC1)C(=O)O; NMeCha = CN[C@@H](CC1CCCCC1)C(=O)O; NMeAllylGly = C=CC[C@H](NC)C(=O)O; NMeChg = CN[C@H](C(=O)O)C1CCCCC1; NMeF = CN[C@@H](Cc1ccccc1)C(=O)O; NMeI = CC[C@H](C)[C@H](NC)C(=O)O; dNMeF = CN[C@H](Cc1ccccc1)C(=O)O; N(CH2CH2)2CF2 = FC1(F)CCN(*)CC1; NMeD = CN[C@@H](CC(=O)O)C(=O)O; NMeL = CN[C@@H](CC(C)C)C(=O)O; NEtAla = CCN[C@@H](C)C(=O)O; NMeNva = CCC[C@H](NC)C(=O)O; NMeV = CN[C@H](C(=O)O)C(C)C; d(β3hA) = C[C@@H](N)CC(=O)O; NMeS = CN[C@@H](CO)C(=O)O; dPip = O=C(O)[C@H]1CCCCN1; NMeA = CN[C@@H](C)C(=O)O; NMeAib = CNC(C)(C)C(=O)O; Piperidide = C1CCN(*)CC1; Pyrrolidide = C1CCN(*)C1; Ac5c = NC1(C(=O)O)CCCC1; Aze = O=C(O)[C@@H]1CCN1; Sar = CNCC(=O)O

The compounds below were run against T1, Kras and SOS1 (biotin-tagged human Kras loaded with GDP, His-tagged human SOS1) (Homo sapiens, UniProt P01116, G12D) (assay: Protein-protein interaction inhibition between Kras and SOS1 (KrasGl2D-SOS PPI) using AlphaScreen). Details: AlphaScreen; biotin-tagged human Kras loaded with GDP, His-tagged human SOS1; read-out: KRAS G12D-SOS PPI IC50.
T1 construct: made in house; host or cells: E. coli (stated for Kras only)
Format: binding
Outline: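 Kras was produced in E. coli, purified, then loaded with GDP. It was paired via streptavidin acceptor beads with His-SOS1 held on nickel donor beads, and proximity signal at 520-620 nm was read after 680 nm illumination.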

T1 sequence (P01116 1-188 isoform P01116-2 G12D): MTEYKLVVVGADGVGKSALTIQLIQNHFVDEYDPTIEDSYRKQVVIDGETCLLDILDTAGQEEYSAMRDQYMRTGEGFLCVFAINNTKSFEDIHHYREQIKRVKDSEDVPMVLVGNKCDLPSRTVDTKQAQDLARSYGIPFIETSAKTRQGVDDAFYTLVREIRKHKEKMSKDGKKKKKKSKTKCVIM

Compound	pIC50
CC[C@H](C)[C@@H]1NC(=O)[C@H](C)N(C)C(=O)C[C@@H](C(=O)N2CCCCC2)N(C)C(=O)[C@H](C(C)C)N(C)C(=O)C2(CCCC2)NC(=O)[C@@H]2CCCN2C(=O)[C@H](CCc2ccc(C(F)(F)F)c(Cl)c2)NC(=O)[C@H]2CCCCN2C(=O)[C@H](CC2CCCCC2)N(C)C(=O)[C@@H]2CCN2C(=O)CN(C)C1=O [Compound 553] ([NMeA]I[Sar][Aze][NMeCha][dPip][hPhe(3-Cl-4-CF3)]P[Ac5c][NMeV][NMeD]-Piperidide; lactam N-11)	7.57
CC[C@H](C)[C@@H]1NC(=O)[C@H](C)N(C)C(=O)C[C@@H](C)NC(=O)[C@H](C2CCCCC2)N(C)C(=O)C2(CCCC2)NC(=O)[C@@H]2CCCN2C(=O)[C@H](CCc2ccc(C(F)(F)F)c(Cl)c2)NC(=O)CN(C)C(=O)[C@H](CC2CCCCC2)N(C)C(=O)CN(C)C(=O)CN(C)C1=O [Compound 1688] (cyclo([Ac5c][NMeChg][d(β3hA)][NMeA]I[Sar][Sar][NMeCha][Sar][hPhe(3-Cl-4-CF3)]P))	7.62
CC[C@H](C)[C@@H]1NC(=O)[C@H](CC(C)C)N(C)C(=O)C[C@@H](C(=O)N(C)C)N(C)C(=O)[C@H](C2CCCC2)N(C)C(=O)C2(CCCC2)NC(=O)[C@@H]2CC(F)(F)CN2C(=O)[C@H](CCc2cc(F)c(C(F)(F)F)c(F)c2)NC(=O)CN(C)C(=O)[C@H](CC2CCCCC2)N(C)C(=O)[C@@H]2CCN2C(=O)[C@H](C)N(C)C1=O [Compound 1346] ([NMeL]I[NMeA][Aze][NMeCha][Sar][hPhe(3,5-F2-4-CF3)][Pro(4,4-F2)][Ac5c][NMeGly(cPent)][NMeD]-NMe2; lactam N-11)	9.22
CC[C@H](C)[C@@H]1NC(=O)[C@H](C)N(C)C(=O)C[C@@H](C(=O)N2CCCCC2)N(C)C(=O)[C@H](C(C)C)N(C)C(=O)C2(CCCC2)NC(=O)[C@@H]2CCCN2C(=O)[C@H](CCc2ccc(C(F)(F)F)c(Cl)c2)NC(=O)CN(C)C(=O)[C@H](CC2CCCCC2)N(C)C(=O)[C@@H]2CCN2C(=O)[C@H](CC2CCCCC2)N(C)C1=O [Compound 1580] ([NMeA]I[NMeCha][Aze][NMeCha][Sar][hPhe(3-Cl-4-CF3)]P[Ac5c][NMeV][NMeD]-Piperidide; lactam N-11)	7.96
CC[C@H](C)[C@@H]1NC(=O)[C@H](C)N(C)C(=O)C[C@@H](C(=O)N2CCCCC2)N(C)C(=O)[C@H]([C@@H](C)CC)N(C)C(=O)C2(CCCC2)NC(=O)[C@@H](Cc2ccccc2)N(C)C(=O)[C@H](CCc2ccc(C(F)(F)F)c(Cl)c2)NC(=O)CN(C)C(=O)[C@H](Cc2ccc(C(F)(F)F)cc2)N(C)C(=O)[C@@H]2CCN2C(=O)[C@H](C)N(C)C1=O [Compound 1942] ([NMeA]I[NMeA][Aze][NMePhe(4-CF3)][Sar][hPhe(3-Cl-4-CF3)][dNMeF][Ac5c][NMeI][NMeD]-Piperidide; lactam N-11)	6.54
CC[C@H](C)[C@@H]1NC(=O)[C@H](CC(C)C)N(C)C(=O)C[C@@H](C(=O)N2CCCCC2)N(C)C(=O)[C@H](COC)N(C)C(=O)C2(CCCC2)NC(=O)[C@@H]2CCCN2C(=O)[C@H](CCc2ccc(C(F)(F)F)c(Cl)c2)NC(=O)CN(C)C(=O)[C@H](CC2CCCCC2)N(C)C(=O)CN(C)C(=O)CN(C)C1=O [Compound 850] ([NMeL]I[Sar][Sar][NMeCha][Sar][hPhe(3-Cl-4-CF3)]P[Ac5c][NMeS](Me)[NMeD]-Piperidide; lactam N-11)	7.62
CC[C@H](C)[C@@H]1NC(=O)[C@H](C)N(C)C(=O)C[C@@H](C)N(C)C(=O)[C@H](CC2CCCC2)N(C)C(=O)C(C)(C)N(C)C(=O)[C@@H]2CCCN2C(=O)[C@H](CCc2ccc(C(F)(F)F)c(Cl)c2)NC(=O)CN(C)C(=O)[C@H](CC2CCCCC2)N(C)C(=O)[C@@H]2CCN2C(=O)[C@H](C)N(C)C1=O [Compound 2158] (cyclo([Aze][NMeCha][Sar][hPhe(3-Cl-4-CF3)]P[NMeAib][NMeAla(cPent)][NMedβ3hAla][NMeA]I[NMeA]))	7.05
CC[C@H](C)[C@@H]1NC(=O)[C@H](CC(C)C)N(C)C(=O)C[C@@H](C(=O)N(C)C)N(C)C(=O)[C@H]([C@@H](C)CC)N(C)C(=O)C2(CCCC2)NC(=O)[C@H](Cc2cccc(Br)c2)N(C)C(=O)[C@H](CCc2ccc(C(F)(F)F)c(Cl)c2)NC(=O)CN(C)C(=O)[C@H](Cc2ccc(C)cc2)N(C)C(=O)[C@@H]2CCN2C(=O)[C@H](C)N(C)C1=O [Compound 1873] ([NMeL]I[NMeA][Aze][NMePhe(4-Me)][Sar][hPhe(3-Cl-4-CF3)][NMePhe(3-Br)][Ac5c][NMeI][NMeD]-NMe2; lactam N-11)	7.48
C=CC[C@H]1C(=O)NC2(CCCC2)C(=O)N(C)[C@@H](C2CCCCC2)C(=O)N(C)[C@H](C(=O)N2CCCCC2)CC(=O)N(C)[C@@H](CC(C)C)C(=O)N[C@@H]([C@@H](C)CC)C(=O)N(C)CC(=O)N(C)CC(=O)N(C)[C@@H](CC2CCCCC2)C(=O)N(C)CC(=O)N[C@@H](CCc2ccc(C(F)(F)F)c(Cl)c2)C(=O)N1C [Compound 1449] ([NMeL]I[Sar][Sar][NMeCha][Sar][hPhe(3-Cl-4-CF3)][NMeAllylGly][Ac5c][NMeChg][NMeD]-Piperidide; lactam N-11)	7.85
CC[C@H](C)[C@@H]1NC(=O)[C@H](CC(C)C)N(C)C(=O)C[C@@H](C(=O)N2CCN(C3COC3)CC2)NC(=O)[C@H]([C@@H](C)CC)N(C)C(=O)C2(CCCC2)NC(=O)[C@@H]2CCCN2C(=O)[C@H](CCc2ccc(C(F)(F)F)c(Cl)c2)NC(=O)CN(C)C(=O)[C@H](CC2CCCCC2)N(C)C(=O)CN(C)C(=O)CN(C)C1=O [Compound 1191] ([NMeL]I[Sar][Sar][NMeCha][Sar][hPhe(3-Cl-4-CF3)]P[Ac5c][NMeI]D-{Piperazinyl(4-(3-oxetanyl))}; lactam N-11)	8.17
CC[C@H](C)[C@@H]1NC(=O)[C@H](CC(C)C)N(C)C(=O)C[C@@H](C(=O)N2CCCCC2)N(C)C(=O)[C@H](CC(C)C)NC(=O)C(C)(C)N(C)C(=O)[C@H](Cc2ccc(OC)cc2)NC(=O)[C@H](Cc2cccc(I)c2)NC(=O)CN(C)C(=O)[C@H](Cc2ccc(C)cc2)N(C)C(=O)CN(C)C(=O)CN(C)C1=O [Compound 247] ([NMeL]I[Sar][Sar][NMePhe(4-Me)][Sar][Phe(3-I)]Y(Me)[NMeAib]L[NMeD]-Piperidide; lactam N-11)	8.15
CC[C@H](C)[C@@H]1NC(=O)[C@H](CC(C)C)N(C)C(=O)C[C@@H](C(=O)N2CCCCC2)N(C)C(=O)[C@H](C(C)C)N(C)C(=O)C2(CCCC2)NC(=O)[C@@H]2CCCN2C(=O)[C@H](CCc2ccc(C(F)(F)F)c(Cl)c2)NC(=O)CN(C)C(=O)[C@H](CC2CCCCC2)N(C)C(=O)[C@@H]2CCN2C(=O)[C@H](CC2CC2)N(C)C1=O [Compound 1642] ([NMeL]I[NMeAla(cPr)][Aze][NMeCha][Sar][hPhe(3-Cl-4-CF3)]P[Ac5c][NMeV][NMeD]-Piperidide; lactam N-11)	7.24
CC[C@H](C)[C@@H]1NC(=O)[C@H](CC(C)C)N(C)C(=O)C[C@@H](C(=O)N2CCCC2)N(C)C(=O)[C@H](C2CCCC2)N(C)C(=O)C2(CCCC2)NC(=O)[C@H](CC(=O)N2CCC(F)(F)CC2)N(C)C(=O)[C@H](CCc2ccc(C(F)(F)F)c(Cl)c2)NC(=O)CN(C)C(=O)[C@H](CC2CCCCC2)N(C)C(=O)[C@@H]2CCN2C(=O)[C@H](C)N(C)C1=O [Compound 26] ([NMeL]I[NMeA][Aze][NMeCha][Sar][hPhe(3-Cl-4-CF3)][NMeD](N(CH2CH2)2CF2)[Ac5c][NMeGly(cPent)][NMeD]-Pyrrolidide; lactam N-11)	8.37
CC[C@H](C)[C@@H]1NC(=O)[C@H](C)N(C)C(=O)C[C@@H](C)NC(=O)[C@H](C(C)C)N(C)C(=O)[C@H](Cc2ccccc2)N(C)C(=O)[C@H](CC(C)C)N(C)C(=O)[C@H](CCc2ccc(C(F)(F)F)cc2)NC(=O)CN(C)C(=O)[C@H](Cc2ccc(Cl)cc2)N(C)C(=O)[C@@H]2CCN2C(=O)CN(C)C1=O [Compound 913] (cyclo([Aze][NMePhe(4-Cl)][Sar][hPhe(4-CF3)][NMeL][NMeF][NMeV][d(β3hA)][NMeA]I[Sar]))	7.28
CC[C@H](C)[C@@H]1NC(=O)[C@H](C)N(C)C(=O)C[C@@H](C(=O)N2CCCCC2)N(C)C(=O)[C@H](C(C)C)N(C)C(=O)C2(CCCC2)NC(=O)[C@@H]2CCCN2C(=O)[C@H](CCc2ccc(C(F)(F)F)c(Cl)c2)NC(=O)CN(C)C(=O)[C@H](CC2CCCCC2)N(C)C(=O)[C@@H]2CCCN2C(=O)CN(C)C1=O [Compound 1121] ([NMeA]I[Sar]P[NMeCha][Sar][hPhe(3-Cl-4-CF3)]P[Ac5c][NMeV][NMeD]-Piperidide; lactam N-11)	8.85
CC[C@H](C)[C@@H]1NC(=O)[C@H](C)N(CC)C(=O)C[C@@H](C)NC(=O)[C@H](C(C)C)N(C)C(=O)C2(CCCC2)NC(=O)[C@@H]2CCCN2C(=O)[C@H](CCc2ccc(C(F)(F)F)c(Cl)c2)NC(=O)CN(C)C(=O)[C@H](CC2CCCCC2)N(C)C(=O)CN(C)C(=O)CN(C)C1=O [Compound 196] (cyclo([Ac5c][NMeV][d(β3hA)][NEtAla]I[Sar][Sar][NMeCha][Sar][hPhe(3-Cl-4-CF3)]P))	7.89
CCC[C@H]1C(=O)NC2(CCCC2)C(=O)N(C)[C@@H](C2CCCCC2)C(=O)N(C)[C@H](C(=O)N2CCCCC2)CC(=O)N(C)[C@@H](CC(C)C)C(=O)N[C@@H]([C@@H](C)CC)C(=O)N(C)[C@@H](C)C(=O)N2CC[C@H]2C(=O)N(C)[C@@H](CC2CCCCC2)C(=O)N(C)CC(=O)N[C@@H](CCc2ccc(C(F)(F)F)c(Cl)c2)C(=O)N1C [Compound 1113] ([NMeL]I[NMeA][Aze][NMeCha][Sar][hPhe(3-Cl-4-CF3)][NMeNva][Ac5c][NMeChg][NMeD]-Piperidide; lactam N-11)	6.39
